These results are taken from ChEMBL document CHEMBL3351587, “Revised stereochemistry of ficifolidione and its biological activities against insects and cells” (J Nat Prod, 2015).

Experiment [1] deals with Colon 26. Description: Cytotoxicity against mouse Colon 26 cells at 100 uM after 48 hrs by WST-8 assay. It is filed as functional, cell-based. A general note: Tetrazolium dyes change colour on reduction, which living cells bring about.
The test system of another experiment is Musca domestica. Description: Insecticidal activity against adult housefly at 44 ug/insect administered topically. The experiment is classed as functional, organism-based.
Experiment [2] concerns Culex pipiens. Description: Insecticidal activity against mosquito larvae at 1.2 ug/insect administered as injection. It is filed as functional, organism-based.
Experiment [3] in a line: Cytotoxicity against human HL60 cells after 48 hrs by WST-8 assay. It is filed as functional, cell-based. The note with it: HL-60, 48 h.
Experiment [4] deals with Colon 26. Description: Cytotoxicity against mouse Colon 26 cells after 48 hrs by WST-8 assay. The note with it: Colon 26, 48 h. The experiment is classed as functional, cell-based.
Experiment [5] in a line: Cytotoxicity against Sf9 cells after 48 hrs by WST-8 assay. The experiment is classed as functional, cell-based. The note with it: Spodoptera frugiperda, Sf9, 48 h.
Another experiment relates to Vero. As to the kind of experiment: Cytotoxicity against african green monkey Vero cells after 48 hrs by WST-8 assay. It is filed as functional, cell-based. The conditions noted are these: Chlorocebus sabaeus.
Experiment [6] concerns Culex pipiens. As to the kind of experiment: Insecticidal activity against mosquito larvae at 50 uM. The experiment is classed as functional, organism-based.
Experiment [7] relates to Spodoptera litura. As to the kind of experiment: Insecticidal activity against cutworms assessed as number of weight reduced larvae at 21 ug, po for a day followed by rearing on normal diet measured on day 4 (reference value: 10 no_unit). It is filed as functional.
Experiment [8] relates to HL-60. Description: Induction of apoptosis in human HL60 cells assessed as activation of caspase 3 at 100 uM after 4 to 6 hrs by immunoblotiing. It is filed as functional, cell-based. In general terms: Immunoblotting shows a protein as a band on a membrane.
The test system of experiment [9] is Spodoptera litura. Description: Insecticidal activity against cutworms assessed as number of weight reduced larvae at 21 ug, po for a day followed by rearing on normal diet measured on day 2 (reference value: 10 no_unit). The experiment is classed as functional.
Experiment [10] has as its system Spodoptera litura. As to the kind of experiment: Insecticidal activity against cutworms assessed as number of weight reduced larvae at 21 ug, po for a day followed by rearing on normal diet measured on day 5 (reference value: 8.7 no_unit). It is filed as functional.
Experiment [11] relates to Spodoptera litura. Description: Insecticidal activity against cutworms at 4 mg/disk by leaf dik assay. The experiment is classed as functional, organism-based.
The subject of experiment [12] is Spodoptera litura. Description: Insecticidal activity against cutworms assessed as number of weight reduced larvae at 21 ug, po for a day followed by rearing on normal diet measured on day 7 (reference value: 6.3 no_unit). It is filed as functional.
Experiment [13] has as its system Spodoptera litura. Description: Insecticidal activity against cutworms assessed as number of weight reduced larvae at 21 ug, po for a day followed by rearing on normal diet measured on day 3 (reference value: 10 no_unit). The experiment is classed as functional.
The subject of experiment [14] is Spodoptera litura. As to the kind of experiment: Insecticidal activity against cutworms assessed as growth inhibition at 21 ug, po for a day followed by rearing on normal diet measured up to 7 days. The experiment is classed as functional, organism-based.
Experiment [15] concerns HL-60. Description: Induction of apoptosis in human HL60 cells assessed as DNA fragmentation at 100 uM after 4 to 6 hrs by electrophoresis. The experiment is classed as functional, cell-based.
The test system of experiment [16] is Spodoptera litura. Description: Insecticidal activity against cutworms assessed as number of weight reduced larvae at 21 ug, po for a day followed by rearing on normal diet measured on day 6 (reference value: 6.7 no_unit). The experiment is classed as functional.
For experiment [17], the system named is Spodoptera litura. As to the kind of experiment: Insecticidal activity against cutworms assessed as number of weight reduced larvae at 21 ug, po for a day followed by rearing on normal diet measured on day 1 (reference value: 10 no_unit). The experiment is classed as functional.

Active and inactive are the calls of the source. The calls are words filed in the database; no cut-off is given here.

Consider `C=C1CC[C@H]2C[C@@H]1C2(C)C`, for which, in the experiment on Colon 26 [1], the outcome was inactive.
As for `CC1(C)C(=O)CC(=O)C(C)(C)C1=O`, the outcome in the experiment on Colon 26 [1] was inactive.
Consider `CC(C)C[C@@H]1C[C@@]2(CC[C@H]3C[C@@H]2C3(C)C)OC2=C1C(=O)C(C)(C)C(=O)C2(C)C`, for which the outcome in the experiment with Musca domestica, in the experiment with Culex pipiens [2] and in the experiment with Culex pipiens [6] was inactive. For the same molecule, the IC50 (commonly the midpoint of a concentration-inhibition curve) in [3] amounted to 3.67 µM; in the experiment with Colon 26 [4], 13.6 µM; in experiment [5], 63.5 µM; in the experiment on Vero it was 8.39 µM.
With `CCC[C@@H]1C[C@@]2(CC[C@H]3C[C@@H]2C3(C)C)OC2=C1C(=O)C(C)(C)C(=O)C2(C)C`, the 50% inhibitory concentration (IC50) in experiment [3] was 23.5 µM; in the experiment on Colon 26 [4], 14.2 µM; in [5] it was 99.2 µM; in the experiment with Vero, 21.4 µM.
As to `CCC[C@H]1C[C@@]2(CC[C@H]3C[C@@H]2C3(C)C)OC2=C1C(=O)C(C)(C)C(=O)C2(C)C`, the IC50 in [3] is 19.4 µM; with Colon 26 [4], 12.6 µM; in [5], 30.1 µM; with Vero, 14.4 µM.
With `CC(C)C[C@H]1C[C@@]2(CC[C@H]3C[C@@H]2C3(C)C)OC2=C1C(=O)C(C)(C)C(=O)C2(C)C`, the outcome in the experiment with Musca domestica, with Culex pipiens [2], in the experiment on Spodoptera litura [11] and in the experiment with Culex pipiens [6] was inactive. Besides, the Activity in the experiment with Spodoptera litura [7] amounted to 9; in the experiment with Spodoptera litura [9], 10; in the experiment on Spodoptera litura [10] it was 8.7; in the experiment with Spodoptera litura [12] it was 7; with Spodoptera litura [13], 9.7; in the experiment with Spodoptera litura [16], 7.3. Besides, the Activity in the experiment with Spodoptera litura [17] is given as 10. Besides, the result in the experiment on HL-60 [8] and with HL-60 [15] was Active. In the experiment with Spodoptera litura [14], the “growth inhibition (GI)” value was “Active”. The IC50 stood at 2.9 µM in experiment [3], 8.96 µM in the experiment with Colon 26 [4], 32.1 µM in experiment [5] and 12.4 µM in the experiment with Vero.
